Experiments:
LYCHOS (GPR155) = target: T1, LYCHOS (GPR155) (Homo sapiens, UniProt Q7Z3F1); assay: [3H]-cholesterol saturation binding, scintillation counting
T1 sequence (Q7Z3F1 1-870): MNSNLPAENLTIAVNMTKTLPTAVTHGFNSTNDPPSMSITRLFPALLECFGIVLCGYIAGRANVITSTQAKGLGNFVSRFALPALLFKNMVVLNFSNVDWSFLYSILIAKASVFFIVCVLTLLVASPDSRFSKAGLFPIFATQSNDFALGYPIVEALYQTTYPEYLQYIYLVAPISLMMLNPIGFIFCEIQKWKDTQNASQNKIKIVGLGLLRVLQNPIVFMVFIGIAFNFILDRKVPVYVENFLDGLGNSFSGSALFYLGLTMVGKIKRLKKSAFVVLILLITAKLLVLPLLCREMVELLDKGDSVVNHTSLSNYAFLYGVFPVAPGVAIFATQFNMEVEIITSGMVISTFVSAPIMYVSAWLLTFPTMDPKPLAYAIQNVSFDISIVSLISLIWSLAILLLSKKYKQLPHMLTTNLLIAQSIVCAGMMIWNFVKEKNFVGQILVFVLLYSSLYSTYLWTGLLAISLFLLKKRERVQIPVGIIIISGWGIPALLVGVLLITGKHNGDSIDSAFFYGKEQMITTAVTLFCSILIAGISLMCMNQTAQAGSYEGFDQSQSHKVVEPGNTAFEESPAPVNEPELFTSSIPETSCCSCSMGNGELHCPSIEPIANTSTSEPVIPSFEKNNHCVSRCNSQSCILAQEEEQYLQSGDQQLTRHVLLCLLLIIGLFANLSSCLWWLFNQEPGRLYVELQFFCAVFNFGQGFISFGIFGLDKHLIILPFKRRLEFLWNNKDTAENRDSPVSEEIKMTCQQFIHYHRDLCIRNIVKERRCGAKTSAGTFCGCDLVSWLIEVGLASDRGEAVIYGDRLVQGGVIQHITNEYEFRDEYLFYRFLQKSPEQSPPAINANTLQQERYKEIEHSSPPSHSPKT

LYCHOS-GATOR1 complex = LYCHOS-GATOR1 complex (Homo sapiens, UniProt Q7Z3F1); assay: FLAG co-immunoprecipitation of GATOR1 with LYCHOS from cholesterol-refed cells; assay type: cell-based
Chain of LYCHOS-GATOR1 complex (O75140 whole entry partner, one chain of several): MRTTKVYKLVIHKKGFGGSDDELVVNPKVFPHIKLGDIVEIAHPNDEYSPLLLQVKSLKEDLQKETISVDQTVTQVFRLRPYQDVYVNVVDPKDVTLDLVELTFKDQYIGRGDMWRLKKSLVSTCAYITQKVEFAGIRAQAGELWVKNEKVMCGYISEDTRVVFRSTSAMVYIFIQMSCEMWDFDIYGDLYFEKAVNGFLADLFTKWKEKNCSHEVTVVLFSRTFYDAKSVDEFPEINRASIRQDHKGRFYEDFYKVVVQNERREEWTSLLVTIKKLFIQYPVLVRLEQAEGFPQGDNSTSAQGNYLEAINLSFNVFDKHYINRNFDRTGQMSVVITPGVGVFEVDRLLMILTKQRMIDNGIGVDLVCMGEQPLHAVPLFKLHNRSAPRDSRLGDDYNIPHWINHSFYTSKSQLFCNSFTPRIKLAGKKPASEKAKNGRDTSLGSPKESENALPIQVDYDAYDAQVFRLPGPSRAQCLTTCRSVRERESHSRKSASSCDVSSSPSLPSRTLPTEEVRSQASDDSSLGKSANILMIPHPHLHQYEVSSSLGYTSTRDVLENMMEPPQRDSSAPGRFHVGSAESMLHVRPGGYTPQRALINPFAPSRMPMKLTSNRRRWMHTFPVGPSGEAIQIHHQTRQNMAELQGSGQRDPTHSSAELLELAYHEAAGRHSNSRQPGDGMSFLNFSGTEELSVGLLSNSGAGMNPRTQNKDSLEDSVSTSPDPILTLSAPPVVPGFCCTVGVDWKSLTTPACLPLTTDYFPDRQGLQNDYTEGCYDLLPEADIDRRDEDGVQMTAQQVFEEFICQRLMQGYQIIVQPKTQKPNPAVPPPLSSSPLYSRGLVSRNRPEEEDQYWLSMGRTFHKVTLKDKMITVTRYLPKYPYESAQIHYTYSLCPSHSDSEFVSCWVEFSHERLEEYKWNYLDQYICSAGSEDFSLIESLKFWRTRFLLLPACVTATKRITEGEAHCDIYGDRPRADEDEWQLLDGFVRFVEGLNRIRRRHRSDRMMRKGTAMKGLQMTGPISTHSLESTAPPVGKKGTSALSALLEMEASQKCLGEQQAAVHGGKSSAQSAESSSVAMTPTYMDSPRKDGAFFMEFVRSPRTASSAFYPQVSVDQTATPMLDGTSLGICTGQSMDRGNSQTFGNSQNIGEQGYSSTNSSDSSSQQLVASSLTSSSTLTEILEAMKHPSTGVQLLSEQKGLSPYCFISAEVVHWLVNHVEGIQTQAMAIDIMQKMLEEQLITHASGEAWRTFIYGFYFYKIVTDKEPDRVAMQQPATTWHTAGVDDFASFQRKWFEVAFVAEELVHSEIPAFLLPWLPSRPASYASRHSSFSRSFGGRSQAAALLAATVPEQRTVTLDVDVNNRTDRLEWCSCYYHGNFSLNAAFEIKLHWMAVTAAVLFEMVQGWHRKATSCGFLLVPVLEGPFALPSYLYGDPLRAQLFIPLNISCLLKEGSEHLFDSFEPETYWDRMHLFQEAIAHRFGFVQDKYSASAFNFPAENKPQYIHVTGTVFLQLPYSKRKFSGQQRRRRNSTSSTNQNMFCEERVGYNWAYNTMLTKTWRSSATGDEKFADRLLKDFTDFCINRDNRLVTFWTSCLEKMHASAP
Chain of LYCHOS-GATOR1 complex (Q8WTW4 whole entry partner, one chain of several): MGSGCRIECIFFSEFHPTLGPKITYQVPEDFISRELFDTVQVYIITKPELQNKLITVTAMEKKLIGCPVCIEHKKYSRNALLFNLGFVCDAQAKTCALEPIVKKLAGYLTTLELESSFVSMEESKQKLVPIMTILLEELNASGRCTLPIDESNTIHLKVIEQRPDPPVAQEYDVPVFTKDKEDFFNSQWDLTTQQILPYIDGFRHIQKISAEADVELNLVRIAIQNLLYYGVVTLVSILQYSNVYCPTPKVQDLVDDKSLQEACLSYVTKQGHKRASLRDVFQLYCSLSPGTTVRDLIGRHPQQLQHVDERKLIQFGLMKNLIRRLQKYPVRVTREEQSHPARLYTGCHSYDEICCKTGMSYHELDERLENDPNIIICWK
Chain of LYCHOS-GATOR1 complex (Q12980 whole entry partner, one chain of several): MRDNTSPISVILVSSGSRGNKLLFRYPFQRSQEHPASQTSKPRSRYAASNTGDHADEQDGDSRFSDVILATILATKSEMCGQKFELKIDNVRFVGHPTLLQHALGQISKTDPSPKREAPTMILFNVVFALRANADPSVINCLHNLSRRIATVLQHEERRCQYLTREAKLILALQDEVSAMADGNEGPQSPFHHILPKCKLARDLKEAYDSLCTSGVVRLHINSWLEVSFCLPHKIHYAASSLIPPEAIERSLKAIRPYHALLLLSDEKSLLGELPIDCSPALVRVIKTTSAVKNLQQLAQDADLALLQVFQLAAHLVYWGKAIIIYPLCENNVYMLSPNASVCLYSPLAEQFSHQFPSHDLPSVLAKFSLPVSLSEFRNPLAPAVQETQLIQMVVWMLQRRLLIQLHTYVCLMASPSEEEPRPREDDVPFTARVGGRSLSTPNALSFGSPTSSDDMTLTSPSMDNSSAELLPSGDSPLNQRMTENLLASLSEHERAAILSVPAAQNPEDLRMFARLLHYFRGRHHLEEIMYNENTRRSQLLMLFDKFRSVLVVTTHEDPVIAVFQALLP

Kd (LYCHOS (GPR155)): 0.1 to 0.2 µM
EC50 (LYCHOS-GATOR1 complex): 31.5 µM
SMILES: CC(C)CCC[C@@H](C)[C@H]1CC[C@H]2[C@@H]3CC=C4C[C@@H](O)CC[C@]4(C)[C@H]3CC[C@]12C [cholesterol]

Source: publication PMC10023259 (Science (New York, N.Y.), 2022)
